Laboratory results reported in patent publication US20240246918A1, “COMPOUNDS AND COMPOSITIONS AS EIF4E INHIBITORS AND THE USES THEREOF” (Ribometrix, Inc., priority 2022, published 2024).

Key:
[1] = molecular target: T1, human eIF4E protein (Homo sapiens, UniProt P06730); assay: Biochemical competitive binding assay (TR-FRET competition, EDA-m7GDP-ATTO-647N probe); details: read-out: hEIF4E TR-FRET IC50
T1 construct: purchased Novus NBP-45314
Outline: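 IC50 values come from 4-parameter fits of the normalized 665/620 nm TR-FRET ratio. Compound was first incubated 15 min with 4 nM recombinant His-eIF4E bound to 2.5 nM Eu-anti-His antibody, then 15 min with 5 nM m7GDP-ATTO-647N tracer, in pH 7.5 HEPES buffer with 100 mM KCl, Tween-20 and BSA.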

[2] = system: COLO 205 colorectal tumor cells; assay: Tumor cell viability inhibition assay (CellTiter-Glo 2.0, 72 hours); assay type: cell-based; details: COLO 205 cell viability
Outline: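 IC50 derived by 4-parameter fitting after normalizing luminescence to DMSO and max-inhibition wells. Compounds tested as 11 concentrations in 4-fold steps on COLO 205 cells seeded at 1500 per well in RPMI-1640/10% FBS; ATP content measured with CellTiter-Glo 2.0 after 72 h.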

T1 sequence (P06730 whole entry): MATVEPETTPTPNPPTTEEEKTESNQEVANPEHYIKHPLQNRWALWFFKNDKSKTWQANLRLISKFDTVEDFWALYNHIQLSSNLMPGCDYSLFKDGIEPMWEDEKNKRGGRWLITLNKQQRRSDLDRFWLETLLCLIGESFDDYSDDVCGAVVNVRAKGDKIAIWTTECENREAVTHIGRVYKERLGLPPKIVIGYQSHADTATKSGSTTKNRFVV

Row | Compound | IC50 [1] | IC50 ([2]; Homo sapiens, COLO 205, 72 h) | IC50 [2]
1 | Cc1cc(-c2cc(Cl)ccc2OCCn2c(C)nc3c(c2=O)C[C@@H](N2CCC[C@@]4(CN(CC(F)(F)F)CC4(F)F)C2)CC3)c2scc(C(=O)O)c2n1 (single isomer, unassigned) [Compound 514] | 0.5 to 5 µM | > 20 µM | –
2 | Cc1cc(-c2cc(Cl)ccc2OCCn2c(C)nc3c(c2=O)CC(C)(N2CCC(OC(F)(F)F)CC2)CC3)c2scc(C(=O)O)c2n1 (single isomer, unassigned) [Compound 515] | < 0.1 µM | < 5 µM | –
3 | Cc1cc(-c2cc(Cl)ccc2OCCn2c(C)nc3c(c2=O)CC(C)(N2CCC(OC(F)(F)F)CC2)CC3)c2scc(C(=O)O)c2n1 (single isomer, unassigned) [Compound 516] | < 0.1 µM | – | < 5 µM
4 | Cc1cc(-c2cc(Cl)ccc2OCCn2c(C)nc3c(c2=O)CC(N2CCC4(CC2)CN(CC(F)(F)F)CCO4)CC3)c2scc(C(=O)O)c2n1 (single isomer, unassigned) [Compound 517] | < 0.1 µM | < 5 µM | –
5 | Cc1cc(-c2cc(Cl)ccc2OCCn2c(C)nc3c(c2=O)CC(N2CCC4(CC2)CN(CC(F)(F)F)CCO4)CC3)c2scc(C(=O)O)c2n1 (single isomer, unassigned) [Compound 518] | < 0.1 µM | – | < 5 µM
6 | CO[C@@H]1CCN([C@@H]2CCc3nc(C)n(CCOc4ccc(Cl)cc4-c4cc(C)nc5c(C(=O)O)csc45)c(=O)c3C2)CC12CC2 (single isomer, unassigned) [Compound 519] | < 0.1 µM | > 20 µM | –
7 | CO[C@H]1CCN([C@@H]2CCc3nc(C)n(CCOc4ccc(Cl)cc4-c4cc(C)nc5c(C(=O)O)csc45)c(=O)c3C2)CC12CC2 (single isomer, unassigned) [Compound 520] | < 0.1 µM | < 5 µM | –
8 | CO[C@@H]1CCN([C@H]2CCc3nc(C)n(CCOc4ccc(Cl)cc4-c4cc(C)nc5c(C(=O)O)csc45)c(=O)c3C2)CC12CC2 (single isomer, unassigned) [Compound 521] | < 0.1 µM | 5 to 20 µM | –
9 | CO[C@H]1CCN([C@H]2CCc3nc(C)n(CCOc4ccc(Cl)cc4-c4cc(C)nc5c(C(=O)O)csc45)c(=O)c3C2)CC12CC2 (single isomer, unassigned) [Compound 522] | < 0.1 µM | < 5 µM | –
10 | Cc1cc(-c2cc(Cl)ccc2OCCn2c(C)nc3c(c2=O)C[C@H](N2CCO[C@@H](CC(F)(F)F)C2)CC3)c2scc(C(=O)O)c2n1 (single isomer, unassigned) [Compound 523] | < 0.1 µM | < 5 µM | –
11 | Cc1cc(-c2cc(Cl)ccc2OCCn2c(C)nc3c(c2=O)C[C@@H](N2CCO[C@@H](CC(F)(F)F)C2)CC3)c2scc(C(=O)O)c2n1 (single isomer, unassigned) [Compound 524] | < 0.1 µM | < 5 µM | –
12 | Cc1cc(-c2cc(Cl)ccc2OCCn2c(C)nc3c(c2=O)C[C@H](N2CCO[C@H](CC(F)(F)F)C2)CC3)c2scc(C(=O)O)c2n1 (single isomer, unassigned) [Compound 525] | < 0.1 µM | < 5 µM | –
13 | Cc1cc(-c2cc(Cl)ccc2OCCn2c(C)nc3c(c2=O)C[C@@H](N2CCO[C@H](CC(F)(F)F)C2)CC3)c2scc(C(=O)O)c2n1 (single isomer, unassigned) [Compound 526] | < 0.1 µM | < 5 µM | –
14 | Cc1cc(-c2cc(Cl)ccc2OCCn2c(C)nc3c(c2=O)CC(N2CCC4(CC2)CNCCO4)CC3)c2scc(C(=O)O)c2n1 (single isomer, unassigned) [Compound 527] | < 0.1 µM | > 20 µM | –
15 | Cc1cc(-c2cc(Cl)ccc2OCCn2c(C)nc3c(c2=O)CC(N2CCC4(CC2)CNCCO4)CC3)c2scc(C(=O)O)c2n1 (single isomer, unassigned) [Compound 528] | < 0.1 µM | – | > 20 µM
16 | Cc1cc(-c2cc(Cl)ccc2OCCn2c(C)nc3c(c2=O)CC(N2CCC4(CC2)CN(CC(F)(F)F)CC4(F)F)CC3)c2scc(C(=O)O)c2n1 (single isomer, unassigned) [Compound 529] | < 0.1 µM | < 5 µM | –
17 | Cc1cc(-c2cc(Cl)ccc2OCCn2c(C)nc3c(c2=O)CC(C)(N2CCC(C(F)(F)F)CC2)CC3)c2scc(C(=O)O)c2n1 (single isomer, unassigned) [Compound 530] | < 0.1 µM | < 5 µM | –
18 | Cc1cc(-c2cc(Cl)ccc2OCCn2c(C)nc3c(c2=O)CC(C)(N2CCC(C(F)(F)F)CC2)CC3)c2scc(C(=O)O)c2n1 (single isomer, unassigned) [Compound 531] | < 0.1 µM | – | < 5 µM

Row | Compound | IC50 [1] | IC50 ([2]; Homo sapiens, COLO 205, 72 h) | IC50 [2]
19 | Cc1cc(-c2cc(Cl)ccc2OCCn2c(C)nc3c(c2=O)C[C@H](N2Cc4cc(F)c(F)cc4C2)CC3)c2scc(C(=O)O)c2n1 (single isomer, unassigned) [Compound 532] | < 0.1 µM | < 5 µM | –
20 | Cc1cc(-c2cc(Cl)ccc2OCCn2c(C)nc3c(c2=O)C[C@@H](N2Cc4cc(F)c(F)cc4C2)CC3)c2scc(C(=O)O)c2n1 (single isomer, unassigned) [Compound 533] | < 0.1 µM | < 5 µM | –
21 | Cc1nc2c(c(=O)n1CC#Cc1ccc(Cl)cc1-c1ccnc3c(C(=O)O)csc13)CC(N1CCC(OC(F)(F)F)CC1)CC2 (single isomer, unassigned) [Compound 534] | < 0.1 µM | < 5 µM | –
22 | Cc1nc2c(c(=O)n1CC#Cc1ccc(Cl)cc1-c1ccnc3c(C(=O)O)csc13)CC(N1CCC(OC(F)(F)F)CC1)CC2 (single isomer, unassigned) [Compound 535] | < 0.1 µM | – | < 5 µM
23 | Cc1nc2c(c(=O)n1CC#Cc1ccc(Cl)cc1-c1ccnc3c(C(=O)O)csc13)C[C@@H](N1CCC[C@]3(C1)CC3(F)F)CC2 (single isomer, unassigned) [Compound 537, 7-(5-chloro-2-(3-(6-(1,1-difluoro-5-azaspiro[2.5]octan-5-yl)-2-methyl-4-oxo-5,6,7,8-tetrahydroquinazolin-3(4H)-yl)prop-1-yn-1-yl)phenyl)thieno[3,2-b]pyridine-3-carboxylic acid] | < 0.1 µM | 5 to 20 µM | –
24 | Cc1nc2c(c(=O)n1CC#Cc1ccc(Cl)cc1-c1ccnc3c(C(=O)O)csc13)C[C@@H](N1CCC[C@@]3(C1)CC3(F)F)CC2 (single isomer, unassigned) [Compound 538, 7-(5-chloro-2-(3-(6-(1,1-difluoro-5-azaspiro[2.5]octan-5-yl)-2-methyl-4-oxo-5,6,7,8-tetrahydroquinazolin-3(4H)-yl)prop-1-yn-1-yl)phenyl)thieno[3,2-b]pyridine-3-carboxylic acid] | < 0.1 µM | < 5 µM | –
25 | Cc1cc(-c2cc(Cl)ccc2OCCn2c(C)nc3c(c2=O)C[C@@](C)(N2CCC[C@]4(C2)CC4(F)F)CC3)c2scc(C(=O)O)c2n1 (single isomer, unassigned) [Compound 539] | < 0.1 µM | < 5 µM | –
26 | Cc1cc(-c2cc(Cl)ccc2OCCn2c(C)nc3c(c2=O)C[C@H](N2CCCC[C@H]2c2cccc(F)c2)CC3)c2scc(C(=O)O)c2n1 (single isomer, unassigned) [Compound 540] | < 0.1 µM | < 5 µM | –
27 | Cc1cc(-c2cc(Cl)ccc2OCCn2c(C)nc3c(c2=O)C[C@H](N2CCCC[C@@H]2c2cccc(F)c2)CC3)c2scc(C(=O)O)c2n1 (single isomer, unassigned) [Compound 541] | < 0.1 µM | < 5 µM | –
28 | Cc1cc(-c2cc(Cl)ccc2OCCn2c(C)nc3c(c2=O)C[C@@H](N2CCCC[C@H]2c2cccc(F)c2)CC3)c2scc(C(=O)O)c2n1 (single isomer, unassigned) [Compound 542] | < 0.1 µM | < 5 µM | –
29 | Cc1cc(-c2cc(Cl)ccc2OCCn2c(C)nc3c(c2=O)C[C@@H](N2CCCC[C@@H]2c2cccc(F)c2)CC3)c2scc(C(=O)O)c2n1 (single isomer, unassigned) [Compound 543] | < 0.1 µM | > 20 µM | –
30 | Cc1cc(-c2cc(Cl)ccc2OCCn2c(C)nc3c(c2=O)C[C@@H](N2CCCC(F)(F)CC2)CC32CC2)c2scc(C(=O)O)c2n1 (single isomer, unassigned) [Compound 544] | < 0.1 µM | < 5 µM | –
31 | Cc1cc(-c2cc(Cl)ccc2OCCn2c(C)nc3c(c2=O)C[C@H](N2CCCC(F)(F)CC2)CC32CC2)c2scc(C(=O)O)c2n1 (single isomer, unassigned) [Compound 545] | < 0.1 µM | < 5 µM | –
32 | Cc1cc(-c2cc(Cl)ccc2OCCn2c(C)nc3c(c2=O)C[C@H](N2CCCC[C@H]2c2nccs2)CC3)c2scc(C(=O)O)c2n1 (single isomer, unassigned) [Compound 546] | < 0.1 µM | < 5 µM | –
33 | Cc1cc(-c2cc(Cl)ccc2OCCn2c(C)nc3c(c2=O)C[C@H](N2CCCC[C@@H]2c2nccs2)CC3)c2scc(C(=O)O)c2n1 (single isomer, unassigned) [Compound 547] | < 0.1 µM | < 5 µM | –
34 | Cc1cc(-c2cc(Cl)ccc2OCCn2c(C)nc3c(c2=O)C[C@@H](N2CCCC[C@H]2c2nccs2)CC3)c2scc(C(=O)O)c2n1 (single isomer, unassigned) [Compound 548] | 0.1 to 0.5 µM | > 20 µM | –
35 | Cc1cc(-c2cc(Cl)ccc2OCCn2c(C)nc3c(c2=O)C[C@@H](N2CCCC[C@@H]2c2nccs2)CC3)c2scc(C(=O)O)c2n1 (single isomer, unassigned) [Compound 549] | 0.1 to 0.5 µM | > 20 µM | –
